SMILES strings stand for the structures. Where a name gives a salt, the structure may show the parent alone.

From patent US20250092014A1, “COMPOUNDS AND METHODS OF ACTIVATING LIPOPROTEIN LIPASE” (Metrea Biosciences, Inc., priority 2021, published 2025) come the findings set out here.

This assay has as its target T1, LPL:sGPIHBP1 complex (Homo sapiens, UniProt P06858).
T1 sequence (P06858 28-475): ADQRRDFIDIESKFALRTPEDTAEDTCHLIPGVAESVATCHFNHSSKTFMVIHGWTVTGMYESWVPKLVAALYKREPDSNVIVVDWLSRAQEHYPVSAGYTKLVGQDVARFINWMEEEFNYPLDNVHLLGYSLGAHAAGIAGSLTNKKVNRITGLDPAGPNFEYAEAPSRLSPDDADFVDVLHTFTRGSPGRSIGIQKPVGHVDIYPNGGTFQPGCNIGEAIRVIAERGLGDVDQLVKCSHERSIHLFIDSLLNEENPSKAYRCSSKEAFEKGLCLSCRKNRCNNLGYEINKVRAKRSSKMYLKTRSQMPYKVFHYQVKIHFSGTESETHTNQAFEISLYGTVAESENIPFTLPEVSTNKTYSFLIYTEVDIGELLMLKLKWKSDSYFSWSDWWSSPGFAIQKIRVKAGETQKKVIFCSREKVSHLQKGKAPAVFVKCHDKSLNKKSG
T1 sequence (Q8IV16 21-151 partner limits assumed): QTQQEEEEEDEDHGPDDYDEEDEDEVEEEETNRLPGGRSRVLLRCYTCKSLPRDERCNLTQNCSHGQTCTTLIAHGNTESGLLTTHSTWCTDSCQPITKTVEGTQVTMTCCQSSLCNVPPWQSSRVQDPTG
Put plainly: RB assay (LPL:sGPIHBP1 pre-incubated with ANGPTL4, RB substrate). To be noted: read-out: RB qAC50. The format is biochemical. Here is the method:
The assay was performed in black 1536-well plates using purified proteins. To identify compounds that stimulate LPL activity either by directly activating LPL or by inhibiting the antagonist ANGPTL4, the LPL:sGPIHBP1 complex was pre-incubated with ANGPTL4 to decrease LPL activity by 80%. After a 60 min pre-incubation, the reaction was started by adding the RB substrate. 30 min after RB addition, the enzymatic reaction was stopped using SDS. Fluorescence intensity was measured 2 h after stopping the reaction.
20 or 40 nl of compound solution in 100% DMSO were placed in test plate. Then was added LPL:sGPIHBP1 to all wells (diluted in assay buffer to 5 nM; 2 μl/well). This was followed by an addition of ANGPTL4 to compounds and neutral controls (diluted in assay buffer to 20 nM; 1 μl/well). A buffer solution was added to the stimulator control (1 μl/well). The plates were then centrifuged and pre-incubated for 60 min at RT. The reaction was started by adding substrate to all wells (diluted in assay buffer to 40 μM, 1 μl/well). The plated were centrifuged (800 rpm for 1 min) and incubated 30 min at RT (=reaction time). The reaction was stopped by adding SDS to all wells (diluted in water to 2.5%, 2 μl/well); incubated 2 h at RT. The fluorescence intensity (ex 540 nm/em 590 nm) was measured on a Pherastar (BMG) using 5 flashes.
`O=C(O)Cc1cc(F)ccc1NC(=O)c1ccc(N2CCCCC2)c(NC(=O)c2c3ccccc3nn2CC(F)(F)F)c1` [Compound 135, 2-(5-fluoro-2-(4-(piperidin-1-yl)-3-(2-(2,2,2-trifluoroethyl)-2H-indazole-3-carboxamido)benzamido)phenyl)acetic acid hydrochloride]: the EC50 stood at 12 µM.

For the molecule `O=C(O)Cc1cc(F)ccc1NC(=O)c1ccc(N2CCCCC2)c(NC(=O)c2nn(C[C@@H]3CCCO3)c3ccccc23)c1` [Compound 136, (S)-2-(5-fluoro-2-(4-(piperidin-1-yl)-3-(1-((tetrahydrofuran-2-yl)methyl)-1H-indazole-3-carboxamido)benzamido)phenyl)acetic acid], the EC50 is greater than 25 µM.

For the molecule `O=C(O)Cc1cc(F)ccc1NC(=O)c1ccc(N2CCCCC2)c(NC(=O)c2nn(C[C@H]3CCCO3)c3ccccc23)c1` [Compound 137, (R)-2-(5-fluoro-2-(4-(piperidin-1-yl)-3-(1-((tetrahydrofuran-2-yl)methyl)-1H-indazole-3-carboxamido)benzamido)phenyl)acetic acid], the EC50 came to 3.8 µM.

`O=C(O)Cc1cc(F)ccc1NC(=O)c1ccc(N2CCCCC2)c(NC(=O)c2nn(CC(F)(F)F)c3ccc(F)cc23)c1` [Compound 138, 2-(5-fluoro-2-(3-(5-fluoro-1-(2,2,2-trifluoroethyl)-1H-indazole-3-carboxamido)-4-(piperidin-1-yl)benzamido)phenyl)acetic acid]: the EC50 was 4.8 µM.

`Cc1cccc2c1c(C(=O)Nc1cc(C(=O)Nc3ccc(F)cc3CC(=O)O)ccc1N1CCCCC1)nn2CC(F)(F)F` [Compound 141, 2-(5-fluoro-2-(3-(4-methyl-1-(2,2,2-trifluoroethyl)-1H-indazole-3-carboxamido)-4-(piperidin-1-yl)benzamido)phenyl)acetic acid]: the EC50 was greater than 25 µM.

Regarding `Cc1ccc2c(c1)c(C(=O)Nc1cc(C(=O)Nc3ccc(F)cc3CC(=O)O)ccc1N1CCCCC1)nn2CC(F)(F)F` [Compound 142, 2-(5-fluoro-2-(3-(5-methyl-1-(2,2,2-trifluoroethyl)-1H-indazole-3-carboxamido)-4-(piperidin-1-yl)benzamido)phenyl)acetic acid], the EC50 was greater than 7.1 µM.

With `Cc1ccc2c(C(=O)Nc3cc(C(=O)Nc4ccc(F)cc4CC(=O)O)ccc3N3CCCCC3)nn(CC(F)(F)F)c2c1` [Compound 143, 2-(5-fluoro-2-(3-(6-methyl-1-(2,2,2-trifluoroethyl)-1H-indazole-3-carboxamido)-4-(piperidin-1-yl)benzamido)phenyl)acetic acid], the EC50 was determined as 5 µM.

Turning to `Cc1cccc2c(C(=O)Nc3cc(C(=O)Nc4ccc(F)cc4CC(=O)O)ccc3N3CCCCC3)nn(CC(F)(F)F)c12` [Compound 144, 2-(5-fluoro-2-(3-(7-methyl-1-(2,2,2-trifluoroethyl)-1H-indazole-3-carboxamido)-4-(piperidin-1-yl)benzamido)phenyl)acetic acid], the EC50 was 5.8 µM.

Consider `O=C(O)Cc1cc(F)ccc1NC(=O)c1ccc(N2CCCCC2)c(NC(=O)c2nn(CC(F)(F)F)c3c2CCC3)c1` [Compound 145, 2-(5-fluoro-2-(4-(piperidin-1-yl)-3-(1-(2,2,2-trifluoroethyl)-1,4,5,6-tetrahydrocyclopenta[c]pyrazole-3-carboxamido)benzamido)phenyl)acetic acid], for which the EC50 is 15 µM.

Turning to `CC(n1nc(C(=O)Nc2cc(C(=O)Nc3ccc(F)cc3CC(=O)O)ccc2N2CCCCC2)c2ccccc21)C(F)(F)F` (centres unmarked) [Compound 146, 2-(5-fluoro-2-(4-(piperidin-1-yl)-3-(1-(1,1,1-trifluoropropan-2-yl)-1H-indazole-3-carboxamido)benzamido)phenyl)acetic acid], the EC50 is greater than 7.1 µM.

Turning to `CC(C1CCOCC1)n1nc(C(=O)Nc2cc(C(=O)Nc3ccc(F)cc3CC(=O)O)ccc2N2CCCCC2)c2ccccc21` (centres unmarked) [Compound 148, 2-(5-fluoro-2-(4-(piperidin-1-yl)-3-(1-(1-(tetrahydro-2H-pyran-4-yl)ethyl)-1H-indazole-3-carboxamido)benzamido)phenyl)acetic acid], the EC50 was greater than 25 µM.

As for `O=C(O)Cc1cc(C(F)(F)F)ccc1NC(=O)c1ccc(N2CCCCC2)c(NC(=O)c2nn(CC(F)(F)F)c3ccccc23)c1` [Example 22], the EC50 worked out at 4.3 µM.

Consider `CCC(C(=O)O)c1cc(F)ccc1NC(=O)c1ccc(N2CCCCC2)c(NC(=O)c2nn(CC(F)(F)F)c3ccccc23)c1` (centres unmarked) [Example 28], for which the EC50 turned out to be 4.2 µM.

Regarding `O=C(O)Cc1cc(F)ccc1NC(=O)c1ccc(N2CCC(F)(F)CC2)c(NC(=O)c2nn(CC(F)(F)F)c3ccccc23)c1` [Example 40], the EC50 turned out to be 3.5 µM.

As for `N#CC1CCN(c2ccc(C(=O)Nc3ccc(F)cc3CC(=O)O)cc2NC(=O)c2nn(CC(F)(F)F)c3ccccc23)CC1` [Example 48], the EC50 is greater than 25 µM.

In the case of `O=C(O)Cc1cc(F)ccc1NC(=O)c1ccc(N2CC3(CCC3)C2)c(NC(=O)c2nn(CC(F)(F)F)c3ccccc23)c1` [Example 49], the EC50 worked out at 20 µM.

For `O=C(O)Cc1cc(F)ccc1NC(=O)c1ccc(N2CCCC2)c(NC(=O)c2nn(CC(F)(F)F)c3ccccc23)c1` [Example 50], the EC50 was 24 µM.

Turning to `O=C(O)Cc1cc(F)ccc1NC(=O)c1ccc(N2CC3CC3C2)c(NC(=O)c2nn(CC(F)(F)F)c3ccccc23)c1` (centres unmarked) [Example 52], the EC50 turned out to be 5 µM.

As to `O=C(O)Cc1cc(F)ccc1NC(=O)c1ccc(N2CCC3(CC3)C2)c(NC(=O)c2nn(CC(F)(F)F)c3ccccc23)c1` [Example 53], the EC50 worked out at 6.8 µM.

Regarding `O=C(O)Cc1cc(F)ccc1NC(=O)c1ccc(N2C3CCC2CC3)c(NC(=O)c2nn(CC(F)(F)F)c3ccccc23)c1` [Example 54], the EC50 was 6.9 µM.

With `O=C(O)Cc1cc(F)ccc1NC(=O)c1ccc(N2CCOCC2)c(NC(=O)c2nn(CC(F)(F)F)c3ccccc23)c1` [Example 56], the EC50 amounted to 15 µM.

In the case of `CN1CCN(c2ccc(C(=O)Nc3ccc(F)cc3CC(=O)O)cc2NC(=O)c2nn(CC(F)(F)F)c3ccccc23)CC1` [Example 57], the EC50 was greater than 7.1 µM.

In the case of `O=C(O)Cc1cc(F)ccc1NC(=O)c1ccc(N2CCCCC2=O)c(NC(=O)c2nn(CC(F)(F)F)c3ccccc23)c1` [Example 59], the EC50 was greater than 25 µM.

Regarding `O=C(O)Cc1cc(F)ccc1NC(=O)c1ccc(N2CCOC2=O)c(NC(=O)c2nn(CC(F)(F)F)c3ccccc23)c1` [Example 60], the EC50 was greater than 25 µM.

On to `CC1(C)CCN(c2ccc(C(=O)Nc3ccc(F)cc3CC(=O)O)cc2NC(=O)c2nn(CC(F)(F)F)c3ccccc23)CC1` [Example 61], for which the EC50 amounted to 3.6 µM.

With `O=C(O)Cc1cc(F)ccc1NC(=O)c1ccc(N2CCCC(F)(F)C2)c(NC(=O)c2nn(CC(F)(F)F)c3ccccc23)c1` [Example 62], the EC50 was greater than 7.1 µM.

For `COC1CCN(c2ccc(C(=O)Nc3ccc(F)cc3CC(=O)O)cc2NC(=O)c2nn(CC(F)(F)F)c3ccccc23)CC1` [Example 65], the EC50 was greater than 7.1 µM.

For `O=C(O)Cc1cc(F)ccc1NC(=O)c1ccc(N2CCS(=O)(=O)CC2)c(NC(=O)c2nn(CC(F)(F)F)c3ccccc23)c1` [Example 66], the EC50 was greater than 25 µM.

Regarding `CC1CCCC(C)N1c1ccc(C(=O)Nc2ccc(F)cc2CC(=O)O)cc1NC(=O)c1nn(CC(F)(F)F)c2ccccc12` (centres unmarked) [Example 68], the EC50 is greater than 7.1 µM.

For `NC(=O)C1CCCCN1c1ccc(C(=O)Nc2ccc(F)cc2CC(=O)O)cc1NC(=O)c1nn(CC(F)(F)F)c2ccccc12` (centres unmarked) [Example 71], the EC50 was greater than 7.1 µM.

Consider `CC1CC(C)CN(c2ccc(C(=O)Nc3ccc(F)cc3CC(=O)O)cc2NC(=O)c2nn(CC(F)(F)F)c3ccccc23)C1` (centres unmarked) [Example 74], for which the EC50 was greater than 7.1 µM.

With `O=C(O)Cc1cc(F)ccc1NC(=O)c1ccc(N2CCC(O)CC2)c(NC(=O)c2nn(CC(F)(F)F)c3ccccc23)c1` [Example 75], the EC50 was greater than 25 µM.
